In ChEMBL document CHEMBL3045788, “Effect of abamectin on root-knot nematodes and tomato yield” (Pest Manag Sci, 2012):
The source made the active and inactive calls. The calls are words filed in the database; no cut-off is given here.

Assays:
Meloidogyne incognita [1] = experiment: Nematicidal activity against second-stage juvenile Meloidogyne incognita (root-knot nematode) infested tomato field assessed as reduction in number of nematodes in soil at 10 L/hectare measured after 40 days; assay type: functional, organism-based
Meloidogyne incognita [2] = experiment: Nematicidal activity against second-stage juvenile Meloidogyne incognita (root-knot nematode) infested tomato plant under greenhouse condition assessed as plant vigour at 5 L/hectare measured after 30 days; assay type: functional
Meloidogyne incognita [3] = experiment: Nematicidal activity against second-stage juvenile Meloidogyne incognita (root-knot nematode) infested tomato field assessed as reduction in root galling index at 5 L/hectare measured after 30 days; assay type: functional, organism-based
Meloidogyne incognita [4] = experiment: Nematicidal activity against second-stage juvenile Meloidogyne incognita (root-knot nematode) infested tomato plant under greenhouse condition assessed as fresh root weight at 7.5 L/hectare measured after 30 days; assay type: functional
Meloidogyne incognita [5] = experiment: Nematicidal activity against second-stage juvenile Meloidogyne incognita (root-knot nematode) infested tomato field assessed as reduction in number of nematodes in soil at 5 L/hectare measured after 60 days; assay type: functional, organism-based
Meloidogyne incognita [6] = experiment: Nematicidal activity against second-stage juvenile Meloidogyne incognita (root-knot nematode) infested tomato plant under greenhouse condition assessed as plant vigour at 7.5 L/hectare measured after 30 days; assay type: functional
Meloidogyne incognita [7] = experiment: Nematicidal activity against second-stage juvenile Meloidogyne incognita (root-knot nematode) infested tomato field assessed as plant height at 10 L/hectare measured after 50 days; assay type: functional
Meloidogyne incognita [8] = experiment: Nematicidal activity against second-stage juvenile Meloidogyne incognita (root-knot nematode) infested tomato field assessed as marketable yield at 5 L/hectare; assay type: functional
Meloidogyne incognita [9] = experiment: Nematicidal activity against Meloidogyne incognita (root-knot nematode) assessed as per seed; assay type: functional, organism-based
Meloidogyne incognita [10] = experiment: Nematicidal activity against second-stage juvenile Meloidogyne incognita (root-knot nematode) infested tomato field assessed as plant height at 5 L/hectare measured after 50 days; assay type: functional
Meloidogyne incognita [11] = experiment: Nematicidal activity against second-stage juvenile Meloidogyne incognita (root-knot nematode) infested tomato field assessed as reduction in root galling index at 7.5 L/hectare measured after 30 days; assay type: functional, organism-based
Meloidogyne incognita [12] = experiment: Nematicidal activity against second-stage juvenile Meloidogyne incognita (root-knot nematode) infested tomato field assessed as reduction in number of nematodes in soil at 7.5 L/hectare measured after 60 days; assay type: functional, organism-based
Meloidogyne incognita [13] = experiment: Nematicidal activity against second-stage juvenile Meloidogyne incognita (root-knot nematode) infested tomato plant under greenhouse condition assessed as reduction in root galling index at 5 L/hectare measured after 30 days; assay type: functional, organism-based
Meloidogyne incognita [14] = experiment: Nematicidal activity against second-stage juvenile Meloidogyne incognita (root-knot nematode) infested tomato field assessed as medium fruit yield at 10 L/hectare; assay type: functional
Meloidogyne incognita [15] = experiment: Nematicidal activity against second-stage juvenile Meloidogyne incognita (root-knot nematode) infested tomato plant under greenhouse condition assessed as plant height at 10 L/hectare measured after 30 days; assay type: functional
Meloidogyne incognita [16] = experiment: Nematicidal activity against second-stage juvenile Meloidogyne incognita (root-knot nematode) infested tomato plant under greenhouse condition assessed as fresh root weight at 10 L/hectare measured after 30 days; assay type: functional
Meloidogyne incognita [17] = experiment: Nematicidal activity against second-stage juvenile Meloidogyne incognita (root-knot nematode) infested tomato field assessed as reduction in number of nematodes in soil at 10 L/hectare measured after 60 days; assay type: functional, organism-based
Meloidogyne incognita [18] = experiment: Nematicidal activity against second-stage juvenile Meloidogyne incognita (root-knot nematode) infested tomato plant under greenhouse condition assessed as plant height at 5 L/hectare measured after 30 days; assay type: functional
Meloidogyne incognita [19] = experiment: Nematicidal activity against second-stage juvenile Meloidogyne incognita (root-knot nematode) infested tomato field assessed as marketable yield at 10 L/hectare; assay type: functional
Meloidogyne incognita [20] = experiment: Nematicidal activity against second-stage juvenile Meloidogyne incognita (root-knot nematode) infested tomato field assessed as large fruit yield at 10 L/hectare; assay type: functional
Meloidogyne incognita [21] = experiment: Nematicidal activity against second-stage juvenile Meloidogyne incognita (root-knot nematode) infested tomato field assessed as plant height at 10 L/hectare measured after 30 days; assay type: functional
Meloidogyne incognita [22] = experiment: Nematicidal activity against second-stage juvenile Meloidogyne incognita (root-knot nematode) infested tomato field assessed as extra-large fruit yield at 7.5 L/hectare; assay type: functional
Meloidogyne incognita [23] = experiment: Nematicidal activity against second-stage juvenile Meloidogyne incognita (root-knot nematode) infested tomato field assessed as marketable yield at 7.5 L/hectare; assay type: functional
Meloidogyne incognita [24] = experiment: Nematicidal activity against second-stage juvenile Meloidogyne incognita (root-knot nematode) infested tomato plant under greenhouse condition assessed as reduction in root galling index at 7.5 L/hectare measured after 30 days; assay type: functional, organism-based
Meloidogyne incognita [25] = experiment: Nematicidal activity against second-stage juvenile Meloidogyne incognita (root-knot nematode) infested tomato plant under greenhouse condition assessed as reduction in root galling index at 10 L/hectare measured after 30 days; assay type: functional, organism-based
Meloidogyne incognita [26] = experiment: Nematicidal activity against second-stage juvenile Meloidogyne incognita (root-knot nematode) infested tomato field assessed as reduction in number of nematodes in soil at 7.5 L/hectare measured after 20 days; assay type: functional, organism-based
Meloidogyne incognita [27] = experiment: Nematicidal activity against second-stage juvenile Meloidogyne incognita (root-knot nematode) infested tomato field assessed as reduction in number of nematodes in soil at 5 L/hectare measured after 40 days; assay type: functional, organism-based
Meloidogyne incognita [28] = experiment: Nematicidal activity against second-stage juvenile Meloidogyne incognita (root-knot nematode) assessed as mortality after 48 hr; assay type: functional
Meloidogyne incognita [29] = experiment: Nematicidal activity against second-stage juvenile Meloidogyne incognita (root-knot nematode) infested tomato field assessed as reduction in root galling index at 10 L/hectare measured after 30 days; assay type: functional, organism-based
Meloidogyne incognita [30] = experiment: Nematicidal activity against second-stage juvenile Meloidogyne incognita (root-knot nematode) infested tomato field assessed as plant height at 7.5 L/hectare measured after 50 days; assay type: functional
Meloidogyne incognita [31] = experiment: Nematicidal activity against second-stage juvenile Meloidogyne incognita (root-knot nematode) infested tomato field assessed as medium fruit yield at 5 L/hectare; assay type: functional
Meloidogyne incognita [32] = experiment: Nematicidal activity against second-stage juvenile Meloidogyne incognita (root-knot nematode) infested tomato plant under greenhouse condition assessed as plant height at 7.5 L/hectare measured after 30 days; assay type: functional
Meloidogyne incognita [33] = experiment: Nematicidal activity against second-stage juvenile Meloidogyne incognita (root-knot nematode) infested tomato plant under greenhouse condition assessed as plant vigour at 10 L/hectare measured after 30 days; assay type: functional
Meloidogyne incognita [34] = experiment: Nematicidal activity against second-stage juvenile Meloidogyne incognita (root-knot nematode) infested tomato field assessed as medium fruit yield at 7.5 L/hectare; assay type: functional
Meloidogyne incognita [35] = experiment: Nematicidal activity against second-stage juvenile Meloidogyne incognita (root-knot nematode) infested tomato field assessed as reduction in number of nematodes in soil at 10 L/hectare measured after 20 days; assay type: functional, organism-based
Meloidogyne incognita [36] = experiment: Nematicidal activity against second-stage juvenile Meloidogyne incognita (root-knot nematode) infested tomato field assessed as reduction in number of nematodes in soil at 5 L/hectare measured after 20 days; assay type: functional, organism-based
Meloidogyne incognita [37] = experiment: Nematicidal activity against second-stage juvenile Meloidogyne incognita (root-knot nematode) infested tomato field assessed as large fruit yield at 5 L/hectare; assay type: functional
Meloidogyne incognita [38] = experiment: Nematicidal activity against second-stage juvenile Meloidogyne incognita (root-knot nematode) infested tomato field assessed as extra-large fruit yield at 5 L/hectare; assay type: functional
Meloidogyne incognita [39] = experiment: Nematicidal activity against second-stage juvenile Meloidogyne incognita (root-knot nematode) infested tomato field assessed as large fruit yield at 7.5 L/hectare; assay type: functional
Meloidogyne incognita [40] = experiment: Nematicidal activity against second-stage juvenile Meloidogyne incognita (root-knot nematode) infested tomato field assessed as plant height at 7.5 L/hectare measured after 30 days; assay type: functional
Meloidogyne incognita [41] = experiment: Nematicidal activity against second-stage juvenile Meloidogyne incognita (root-knot nematode) infested tomato field assessed as reduction in number of nematodes in soil at 7.5 L/hectare measured after 40 days; assay type: functional, organism-based
Meloidogyne incognita [42] = experiment: Nematicidal activity against second-stage juvenile Meloidogyne incognita (root-knot nematode) infested tomato field assessed as extra-large fruit yield at 10 L/hectare; assay type: functional
Meloidogyne incognita [43] = experiment: Nematicidal activity against second-stage juvenile Meloidogyne incognita (root-knot nematode) infested tomato field assessed as plant vigour at 5 L/hectare measured after 30 days; assay type: functional
Meloidogyne incognita [44] = experiment: Nematicidal activity against second-stage juvenile Meloidogyne incognita (root-knot nematode) infested tomato field assessed as plant vigour at 10 L/hectare measured after 30 days; assay type: functional
Meloidogyne incognita [45] = experiment: Nematicidal activity against second-stage juvenile Meloidogyne incognita (root-knot nematode) infested tomato field assessed as plant height at 5 L/hectare measured after 30 days; assay type: functional
Meloidogyne incognita [46] = experiment: Nematicidal activity against second-stage juvenile Meloidogyne incognita (root-knot nematode) infested tomato plant under greenhouse condition assessed as fresh root weight at 5 L/hectare measured after 30 days; assay type: functional
Meloidogyne incognita [47] = experiment: Nematicidal activity against second-stage juvenile Meloidogyne incognita (root-knot nematode) infested tomato field assessed as plant vigour at 7.5 L/hectare measured after 30 days; assay type: functional

Question: How did the Activity (Meloidogyne incognita [1]) turn out when `CC[C@H](C)[C@H]1O[C@]2(C=C[C@@H]1C)C[C@@H]1C[C@@H](C/C=C(\C)[C@@H](O[C@H]3C[C@H](OC)[C@@H](O[C@H]4C[C@H](OC)[C@@H](O)[C@H](C)O4)[C@H](C)O3)[C@@H](C)/C=C/C=C3\CO[C@@H]4[C@H](O)C(C)=C[C@@H](C(=O)O1)[C@]34O)O2.CO[C@H]1C[C@H](O[C@H]2[C@H](C)O[C@@H](O[C@@H]3/C(C)=C/C[C@@H]4C[C@@H](C[C@]5(C=C[C@H](C)[C@@H](C(C)C)O5)O4)OC(=O)[C@@H]4C=C(C)[C@@H](O)[C@H]5OC/C(=C\C=C\[C@@H]3C)[C@]54O)C[C@@H]2OC)O[C@@H](C)[C@@H]1O` [ABAMECTIN] was run?
Answer: The Activity was “Active”.

Question: What about the Activity (Meloidogyne incognita [2]) of the same compound?
Answer: The Activity was 85%.

Question: What about the Activity (Meloidogyne incognita [3]) of the same compound?
Answer: Its Activity is “Active”.

Question: What about the Activity (Meloidogyne incognita [4]) of the same compound?
Answer: Its Activity is 1.09 g.

Question: What about the Activity (Meloidogyne incognita [5]) of the same compound?
Answer: The Activity was “Active”.

Question: What about the Activity (Meloidogyne incognita [6]) of the same compound?
Answer: The Activity was 87%.

Question: And the Activity (Meloidogyne incognita [7])?
Answer: Its Activity is 102.8 cm.

Question: And the Activity (Meloidogyne incognita [8])?
Answer: Its Activity is 59.4%.

Question: What about the EC50 (Meloidogyne incognita [9]) of the same compound?
Answer: The EC50 was 0.016 mgAi.

Question: And the EC80 (Meloidogyne incognita [9])?
Answer: The EC80 was 0.28 mgAi.

Question: And the Activity (Meloidogyne incognita [10])?
Answer: The Activity was 94.3 cm.

Question: And the Activity (Meloidogyne incognita [11])?
Answer: The Activity was “Active”.

Question: What about the Activity (Meloidogyne incognita [12]) of the same compound?
Answer: Its Activity is “Active”.

Question: What about the Activity (Meloidogyne incognita [13]) of the same compound?
Answer: Its Activity is “Active”.

Question: And the Activity (Meloidogyne incognita [14])?
Answer: The Activity was 41.3%.

Question: What about the Activity (Meloidogyne incognita [15]) of the same compound?
Answer: Its Activity is 39.2 cm.

Question: What about the Activity (Meloidogyne incognita [16]) of the same compound?
Answer: Its Activity is 1.14 g.

Question: What about the Activity (Meloidogyne incognita [17]) of the same compound?
Answer: The Activity was “Active”.

Question: And the Activity (Meloidogyne incognita [18])?
Answer: Its Activity is 35.4 cm.

Question: What about the Activity (Meloidogyne incognita [19]) of the same compound?
Answer: The Activity was 69.2%.

Question: What about the Activity (Meloidogyne incognita [20]) of the same compound?
Answer: Its Activity is 20.6%.

Question: And the Activity (Meloidogyne incognita [21])?
Answer: Its Activity is 39.1 cm.

Question: What about the Activity (Meloidogyne incognita [22]) of the same compound?
Answer: Its Activity is 5.8%.

Question: What about the Activity (Meloidogyne incognita [23]) of the same compound?
Answer: Its Activity is 63.4%.

Question: And the Activity (Meloidogyne incognita [24])?
Answer: The Activity was “Active”.

Question: And the Activity (Meloidogyne incognita [25])?
Answer: The Activity was “Active”.

Question: What about the Activity (Meloidogyne incognita [26]) of the same compound?
Answer: Its Activity is “Active”.

Question: What about the Activity (Meloidogyne incognita [27]) of the same compound?
Answer: The Activity was “Active”.

Question: What about the LC50 (Meloidogyne incognita [28]) of the same compound?
Answer: The LC50 was 7.06 mgAi/L.

Question: And the LC90 (Meloidogyne incognita [28])?
Answer: The LC90 was 21.81 mgAi/L.

Question: What about the Activity (Meloidogyne incognita [29]) of the same compound?
Answer: The Activity was “Active”.

Question: What about the Activity (Meloidogyne incognita [30]) of the same compound?
Answer: The Activity was 98.6 cm.

Question: And the Activity (Meloidogyne incognita [31])?
Answer: The Activity was 36.7%.

Question: What about the Activity (Meloidogyne incognita [32]) of the same compound?
Answer: Its Activity is 37.5 cm.

Question: And the Activity (Meloidogyne incognita [33])?
Answer: The Activity was 92%.

Question: What about the Activity (Meloidogyne incognita [34]) of the same compound?
Answer: The Activity was 39.5%.

Question: And the Activity (Meloidogyne incognita [35])?
Answer: The Activity was “Active”.

Question: What about the Activity (Meloidogyne incognita [36]) of the same compound?
Answer: Its Activity is “Active”.

Question: What about the Activity (Meloidogyne incognita [37]) of the same compound?
Answer: The Activity was 17.4%.

Question: What about the Activity (Meloidogyne incognita [38]) of the same compound?
Answer: The Activity was 5.3%.

Question: What about the Activity (Meloidogyne incognita [39]) of the same compound?
Answer: Its Activity is 18.1%.

Question: And the Activity (Meloidogyne incognita [40])?
Answer: Its Activity is 35.9 cm.

Question: And the Activity (Meloidogyne incognita [41])?
Answer: Its Activity is “Active”.

Question: What about the Activity (Meloidogyne incognita [42]) of the same compound?
Answer: Its Activity is 7.3%.

Question: And the Activity (Meloidogyne incognita [43])?
Answer: The Activity was 85%.

Question: What about the Activity (Meloidogyne incognita [44]) of the same compound?
Answer: Its Activity is 92%.

Question: And the Activity (Meloidogyne incognita [45])?
Answer: Its Activity is 32.4 cm.

Question: What about the Activity (Meloidogyne incognita [46]) of the same compound?
Answer: The Activity was 0.98 g.

Question: What about the Activity (Meloidogyne incognita [47]) of the same compound?
Answer: The Activity was 87%.
